# Data: ChEMBL document CHEMBL4765276, “Synthesis of multimeric pyrrolidine iminosugar inhibitors of human β-glucocerebrosidase and α-galactosidase A: First example of a multivalent enzyme activity enhancer for Fabry disease” (Eur J Med Chem, 2020)
# Key:
# [1] = target: T1, Alpha-galactosidase A (Homo sapiens, UniProt P06280); assay: Inhibition of human recombinant lysosomal alpha-GalA using 4-methylumbelliferyl-[…] as substrate preincubated for 45 mins followed by substrate addition and measured after 30 mins by fluorescence spectrophotometric assay
# T1 sequence (P06280 whole entry): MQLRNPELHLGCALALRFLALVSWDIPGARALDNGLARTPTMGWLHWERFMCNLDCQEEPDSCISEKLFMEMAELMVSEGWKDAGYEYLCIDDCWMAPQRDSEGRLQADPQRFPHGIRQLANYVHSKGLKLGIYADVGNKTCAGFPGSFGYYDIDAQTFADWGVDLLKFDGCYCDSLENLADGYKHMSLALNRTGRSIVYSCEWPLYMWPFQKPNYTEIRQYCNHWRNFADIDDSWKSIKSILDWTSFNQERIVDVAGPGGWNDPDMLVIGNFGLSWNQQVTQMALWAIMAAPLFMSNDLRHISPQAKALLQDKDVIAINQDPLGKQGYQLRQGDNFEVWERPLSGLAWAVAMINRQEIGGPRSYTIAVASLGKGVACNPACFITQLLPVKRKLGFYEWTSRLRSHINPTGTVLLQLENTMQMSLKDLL
# [2] = target: T2, Lysosomal acid glucosylceramidase (Homo sapiens, UniProt P04062); assay: Inhibition of human recombinant lysosomal GCase using 4-methylumbelliferyl-beta-D-glucopyranoside as substrate preincubated for 45 mins followed by substrate addition and measured after 30 mins by fluorescence spectrophotometric assay
# T2 sequence (P04062 whole entry): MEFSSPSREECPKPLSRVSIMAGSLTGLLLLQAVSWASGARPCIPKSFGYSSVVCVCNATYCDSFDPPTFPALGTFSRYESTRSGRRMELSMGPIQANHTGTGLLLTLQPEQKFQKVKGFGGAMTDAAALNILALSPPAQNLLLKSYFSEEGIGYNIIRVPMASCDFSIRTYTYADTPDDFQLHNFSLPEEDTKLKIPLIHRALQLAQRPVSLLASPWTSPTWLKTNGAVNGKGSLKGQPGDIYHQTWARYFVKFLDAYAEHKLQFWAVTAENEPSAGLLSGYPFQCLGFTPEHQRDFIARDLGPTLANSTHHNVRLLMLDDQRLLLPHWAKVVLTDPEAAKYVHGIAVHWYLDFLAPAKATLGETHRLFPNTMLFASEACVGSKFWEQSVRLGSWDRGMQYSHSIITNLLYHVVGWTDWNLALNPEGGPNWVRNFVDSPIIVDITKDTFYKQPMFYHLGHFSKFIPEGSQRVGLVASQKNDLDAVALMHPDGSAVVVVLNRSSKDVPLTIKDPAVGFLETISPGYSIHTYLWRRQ
# [3] = target: T2, Lysosomal acid glucosylceramidase; assay: Competitive inhibition of human recombinant lysosomal GCase using 4-methylumbelliferyl-beta-D-glucopyranoside as substrate preincubated for 45 mins followed by substrate addition and measured after 30 mins by fluorescence spectrophotometry based Lineweaver-Burk plot analysis
# [4] = target: T3, Lysosomal acid glucosylceramidase (Homo sapiens) (UniProt P04062); assay: Inhibition of human recombinant lysosomal GCase at 1 mM using 4-methylumbelliferyl-beta-D-glucopyranoside as substrate preincubated for 45 mins followed by substrate addition and measured after 30 mins by fluorescence spectrophotometric assay relative to control; settings: time 75.0 min
# T3 sequence (whole entry): T2 sequence (P04062 whole entry)
# [5] = target: T4, Alpha-galactosidase A (Homo sapiens) (UniProt P06280); assay: Inhibition of human recombinant lysosomal alpha-GalA at 1 mM using 4-methylumbelliferyl-[…] as substrate preincubated for 45 mins followed by substrate addition and measured after 30 mins by fluorescence spectrophotometric assay relative to control; settings: time 75.0 min
# T4 sequence (whole entry): T1 sequence (P06280 whole entry)
SMILES,IC50 [1],IC50 [2],Ki [3],inhibition [4],inhibition [5]
O=C(CCCCC(=O)NC(COCc1cn(CCOCCOc2ccc(-c3cn(C[C@@H]4NC[C@@H](O)[C@H]4O)nn3)cc2)nn1)(COCc1cn(CCOCCOc2ccc(-c3cn(C[C@@H]4NC[C@@H](O)[C@H]4O)nn3)cc2)nn1)COCc1cn(CCOCCOc2ccc(-c3cn(C[C@@H]4NC[C@@H](O)[C@H]4O)nn3)cc2)nn1)NC(COCc1cn(CCOCCOc2ccc(-c3cn(C[C@@H]4NC[C@@H](O)[C@H]4O)nn3)cc2)nn1)(COCc1cn(CCOCCOc2ccc(-c3cn(C[C@@H]4NC[C@@H](O)[C@H]4O)nn3)cc2)nn1)COCc1cn(CCOCCOc2ccc(-c3cn(C[C@@H]4NC[C@@H](O)[C@H]4O)nn3)cc2)nn1,215 µM,4.7 µM,2.7 µM,–,–
COc1ccc(-c2cn(C[C@@H]3NC[C@@H](O)[C@H]3O)nn2)cc1,–,39 µM,55 µM,–,< 50%
COCc1cn(C[C@@H]2NC[C@@H](O)[C@H]2O)nn1,–,–,–,< 50%,< 50%
O[C@@H]1[C@H](O)CN[C@H]1Cn1cc(CCCn2cc(COCC(COCc3cn(CCCc4cn(C[C@@H]5NC[C@@H](O)[C@H]5O)nn4)nn3)(COCc3cn(CCCc4cn(C[C@@H]5NC[C@@H](O)[C@H]5O)nn4)nn3)COCc3cn(CCCc4cn(C[C@@H]5NC[C@@H](O)[C@H]5O)nn4)nn3)nn2)nn1,897 µM,168 µM,–,–,–
O=C(CCCCC(=O)NC(COCc1cn(C[C@H]2NC[C@@H](O)[C@H]2O)nn1)(COCc1cn(C[C@H]2NC[C@@H](O)[C@H]2O)nn1)COCc1cn(C[C@H]2NC[C@@H](O)[C@H]2O)nn1)NC(COCc1cn(C[C@H]2NC[C@@H](O)[C@H]2O)nn1)(COCc1cn(C[C@H]2NC[C@@H](O)[C@H]2O)nn1)COCc1cn(C[C@H]2NC[C@@H](O)[C@H]2O)nn1,416 µM,–,–,< 50%,–
O=C(NC(COCc1cn(CCOCCOc2ccc(-c3cn(C[C@@H]4NC[C@@H](O)[C@H]4O)nn3)cc2)nn1)(COCc1cn(CCOCCOc2ccc(-c3cn(C[C@@H]4NC[C@@H](O)[C@H]4O)nn3)cc2)nn1)COCc1cn(CCOCCOc2ccc(-c3cn(C[C@@H]4NC[C@@H](O)[C@H]4O)nn3)cc2)nn1)c1cc(C(=O)NC(COCc2cn(CCOCCOc3ccc(-c4cn(C[C@@H]5NC[C@@H](O)[C@H]5O)nn4)cc3)nn2)(COCc2cn(CCOCCOc3ccc(-c4cn(C[C@@H]5NC[C@@H](O)[C@H]5O)nn4)cc3)nn2)COCc2cn(CCOCCOc3ccc(-c4cn(C[C@@H]5NC[C@@H](O)[C@H]5O)nn4)cc3)nn2)cc(C(=O)NC(COCc2cn(CCOCCOc3ccc(-c4cn(C[C@@H]5NC[C@@H](O)[C@H]5O)nn4)cc3)nn2)(COCc2cn(CCOCCOc3ccc(-c4cn(C[C@@H]5NC[C@@H](O)[C@H]5O)nn4)cc3)nn2)COCc2cn(CCOCCOc3ccc(-c4cn(C[C@@H]5NC[C@@H](O)[C@H]5O)nn4)cc3)nn2)c1,–,1.1 µM,1.1 µM,–,< 50%
O=C(NC(COCc1cn(C[C@H]2NC[C@@H](O)[C@H]2O)nn1)(COCc1cn(C[C@H]2NC[C@@H](O)[C@H]2O)nn1)COCc1cn(C[C@H]2NC[C@@H](O)[C@H]2O)nn1)c1cc(C(=O)NC(COCc2cn(C[C@H]3NC[C@@H](O)[C@H]3O)nn2)(COCc2cn(C[C@H]3NC[C@@H](O)[C@H]3O)nn2)COCc2cn(C[C@H]3NC[C@@H](O)[C@H]3O)nn2)cc(C(=O)NC(COCc2cn(C[C@H]3NC[C@@H](O)[C@H]3O)nn2)(COCc2cn(C[C@H]3NC[C@@H](O)[C@H]3O)nn2)COCc2cn(C[C@H]3NC[C@@H](O)[C@H]3O)nn2)c1,286 µM,–,–,< 50%,–
O=C(CCCCC(=O)NC(COCc1cn(CCCc2cn(C[C@@H]3NC[C@@H](O)[C@H]3O)nn2)nn1)(COCc1cn(CCCc2cn(C[C@@H]3NC[C@@H](O)[C@H]3O)nn2)nn1)COCc1cn(CCCc2cn(C[C@@H]3NC[C@@H](O)[C@H]3O)nn2)nn1)NC(COCc1cn(CCCc2cn(C[C@@H]3NC[C@@H](O)[C@H]3O)nn2)nn1)(COCc1cn(CCCc2cn(C[C@@H]3NC[C@@H](O)[C@H]3O)nn2)nn1)COCc1cn(CCCc2cn(C[C@@H]3NC[C@@H](O)[C@H]3O)nn2)nn1,483 µM,333 µM,–,–,–
NC(COCc1cn(CCCc2cn(C[C@@H]3NC[C@@H](O)[C@H]3O)nn2)nn1)(COCc1cn(CCCc2cn(C[C@@H]3NC[C@@H](O)[C@H]3O)nn2)nn1)COCc1cn(CCCc2cn(C[C@@H]3NC[C@@H](O)[C@H]3O)nn2)nn1,–,725 µM,–,–,< 50%

# Next, values leading:
IC50 [1],IC50 [2],Ki [3],inhibition [4],inhibition [5],SMILES
309 µM,–,–,< 50%,–,NC(COCc1cn(CCCc2cn(C[C@H]3NC[C@@H](O)[C@H]3O)nn2)nn1)(COCc1cn(CCCc2cn(C[C@H]3NC[C@@H](O)[C@H]3O)nn2)nn1)COCc1cn(CCCc2cn(C[C@H]3NC[C@@H](O)[C@H]3O)nn2)nn1
–,–,–,< 50%,< 50%,NC(COCc1cn(C[C@@H]2NC[C@@H](O)[C@H]2O)nn1)(COCc1cn(C[C@@H]2NC[C@@H](O)[C@H]2O)nn1)COCc1cn(C[C@@H]2NC[C@@H](O)[C@H]2O)nn1
–,247 µM,–,–,< 50%,CCCc1cn(C[C@@H]2NC[C@@H](O)[C@H]2O)nn1
–,–,–,< 50%,< 50%,O=C(NC(COCc1cn(C[C@@H]2NC[C@@H](O)[C@H]2O)nn1)(COCc1cn(C[C@@H]2NC[C@@H](O)[C@H]2O)nn1)COCc1cn(C[C@@H]2NC[C@@H](O)[C@H]2O)nn1)c1cc(C(=O)NC(COCc2cn(C[C@@H]3NC[C@@H](O)[C@H]3O)nn2)(COCc2cn(C[C@@H]3NC[C@@H](O)[C@H]3O)nn2)COCc2cn(C[C@@H]3NC[C@@H](O)[C@H]3O)nn2)cc(C(=O)NC(COCc2cn(C[C@@H]3NC[C@@H](O)[C@H]3O)nn2)(COCc2cn(C[C@@H]3NC[C@@H](O)[C@H]3O)nn2)COCc2cn(C[C@@H]3NC[C@@H](O)[C@H]3O)nn2)c1
–,–,–,< 50%,< 50%,O=C(CCCCC(=O)NC(COCc1cn(C[C@@H]2NC[C@@H](O)[C@H]2O)nn1)(COCc1cn(C[C@@H]2NC[C@@H](O)[C@H]2O)nn1)COCc1cn(C[C@@H]2NC[C@@H](O)[C@H]2O)nn1)NC(COCc1cn(C[C@@H]2NC[C@@H](O)[C@H]2O)nn1)(COCc1cn(C[C@@H]2NC[C@@H](O)[C@H]2O)nn1)COCc1cn(C[C@@H]2NC[C@@H](O)[C@H]2O)nn1
–,–,–,< 50%,< 50%,CCCc1cn(C[C@H]2NC[C@@H](O)[C@H]2O)nn1
–,–,–,< 50%,< 50%,NC(COCc1cn(C[C@H]2NC[C@@H](O)[C@H]2O)nn1)(COCc1cn(C[C@H]2NC[C@@H](O)[C@H]2O)nn1)COCc1cn(C[C@H]2NC[C@@H](O)[C@H]2O)nn1
142 µM,–,–,< 50%,–,O[C@@H]1[C@H](O)CN[C@@H]1Cn1cc(CCCn2cc(COCC(COCc3cn(CCCc4cn(C[C@H]5NC[C@@H](O)[C@H]5O)nn4)nn3)(COCc3cn(CCCc4cn(C[C@H]5NC[C@@H](O)[C@H]5O)nn4)nn3)COCc3cn(CCCc4cn(C[C@H]5NC[C@@H](O)[C@H]5O)nn4)nn3)nn2)nn1
–,38 µM,55 µM,–,< 50%,NC(COCc1cn(CCOCCOc2ccc(-c3cn(C[C@@H]4NC[C@@H](O)[C@H]4O)nn3)cc2)nn1)(COCc1cn(CCOCCOc2ccc(-c3cn(C[C@@H]4NC[C@@H](O)[C@H]4O)nn3)cc2)nn1)COCc1cn(CCOCCOc2ccc(-c3cn(C[C@@H]4NC[C@@H](O)[C@H]4O)nn3)cc2)nn1
–,–,–,< 50%,< 50%,O=C(NC(COCc1cn(CCCc2cn(C[C@@H]3NC[C@@H](O)[C@H]3O)nn2)nn1)(COCc1cn(CCCc2cn(C[C@@H]3NC[C@@H](O)[C@H]3O)nn2)nn1)COCc1cn(CCCc2cn(C[C@@H]3NC[C@@H](O)[C@H]3O)nn2)nn1)c1cc(C(=O)NC(COCc2cn(CCCc3cn(C[C@@H]4NC[C@@H](O)[C@H]4O)nn3)nn2)(COCc2cn(CCCc3cn(C[C@@H]4NC[C@@H](O)[C@H]4O)nn3)nn2)COCc2cn(CCCc3cn(C[C@@H]4NC[C@@H](O)[C@H]4O)nn3)nn2)cc(C(=O)NC(COCc2cn(CCCc3cn(C[C@@H]4NC[C@@H](O)[C@H]4O)nn3)nn2)(COCc2cn(CCCc3cn(C[C@@H]4NC[C@@H](O)[C@H]4O)nn3)nn2)COCc2cn(CCCc3cn(C[C@@H]4NC[C@@H](O)[C@H]4O)nn3)nn2)c1
–,–,–,< 50%,< 50%,COCc1cn(C[C@H]2NC[C@@H](O)[C@H]2O)nn1
